# Data from patent US7153869B2, “Substituted amino acids as erythropoietin mimetics” (priority 1998, dated 2006).
# Target: T1, EBP-Ig (N-terminal 225 amino acids of the human EPO receptor joined to an Ig heavy chain) (Homo sapiens, UniProt P19235)
# T1 construct: Ig heavy chain (fusion partner); made in house; host or cells: NSO cells (secreted into conditioned media)
# T1 sequence (P19235 25-250 limits assumed): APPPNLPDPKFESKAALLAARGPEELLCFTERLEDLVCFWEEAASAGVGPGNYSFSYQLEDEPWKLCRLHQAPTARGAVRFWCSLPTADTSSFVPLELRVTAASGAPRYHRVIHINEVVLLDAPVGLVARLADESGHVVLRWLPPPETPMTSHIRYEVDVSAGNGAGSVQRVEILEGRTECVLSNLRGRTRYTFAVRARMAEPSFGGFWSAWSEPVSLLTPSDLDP
# Test: Inhibition of [125I]EPO binding to immobilized EBP-Ig (EPO binding protein-Ig), scintillation Flash plate competition assay
# Conditions: for IC30 μM (Inhibition of EPO binding to EBP-Ig): 0–500 μM test compound; for % inh @ 50 μM (Inhibition of EPO binding to EBP-Ig): 50 μM test compound, average % inhibition
# From the text: The interaction of biotin and streptavidin is frequently employed to capture and effectively immobilize reagents useful in assay protocols and has been employed here as a simple method to capture and immobilize EBP-Ig. EBP-Ig is initially randomly modified with an amine reactive derivative of biotin to produce biotinylated-EBP-Ig. Use of streptavidin coated plates allows the capture of the biotinylated EBP-Ig on the surface of a scintillant impregnated coated well (Flash plates, NEN-DuPont). […] The amount of light produced was quantified to estimate the amount of ligand binding. The specific assay format was suitable for the multi-well plate capacity of a Packard TopCount Microplate Scintillation counter.
# Biotinylated EBP-Ig was prepared as follows. EBP-Ig (3 mL, OD280 2.9) was exchanged into 50 mM sodium bicarbonate, pH 8.5 using a Centriprep 10 ultrafiltration device. The final volume of the exchanged protein was 1.2 mL (OD280 2.6, representing about 2 mg total protein). 10 μL of a 4 mg/ml solution of NHS-LC-Biotin (Pierce) was added and the reaction mixture placed on ice in the dark for two hours. Unreacted biotin was removed by exchange of the reaction buffer into PBS in a Centriprep 10 device and the protein reagent aliquoted and stored at −70° C.
# All wells were adjusted to a final DMSO concentration of 5%. […] After all additions were made, the plate was covered with an adhesive top seal and placed in the dark at room temperature overnight. The next day all liquid was aspirated from the wells to limit analyte dependent quench of the signal, and the plates were counted on a Packard TOPCOUNT Microplate Scintillation Counter. […] Corrected total binding (CTB) was calculated as: TB−NSB=CTB. […] Table 1 lists the average % inhibition, and if determined the IC50 and IC30 values for compounds of Formula I, where the compound numbers refer to the compounds in the tables accompanying the preparative examples.
structure (smiles),measurement,setting,value
NCCCCC(C(=O)O)N(CC=Cc1cccs1)CC=Cc1cccs1 (stereo not shown) [cpd 50],EPO/EBP-Ig % inh @ 50 μM,"Table 3, 50 μM",−6%
"COC(=O)C(CCC(=O)OC(C)(C)C)NCC=Cc1cccc(Oc2ccccc2)c1 (stereo not shown) [cpd 334, N-(3-phenoxycinnamyl)Glu(O-t-Bu)-OMe]",EPO/EBP-Ig % inh @ 50 μM,"50 μM compound, Table 19A",6%
CCOC(=O)CCC(C(=O)OC)N(C/C=C/c1cccs1)C/C=C/c1cccs1 (stereo not shown) [compound 60],EPO/EBP-Ig % inh @ 50 μM,"Table 3, 50 μM",9%
"O=C(O)CCC(NCC=Cc1cccc(Oc2ccccc2)c1)C(=O)O (stereo not shown) [cpd 326, N-(3-Phenoxycinnamyl)Glu-OH]",EPO/EBP-Ig % inh @ 50 μM,"50 μM compound, Table 19A",0%
CC(C)(C)c1ccc(Oc2cccc(/C=C/CN(C/C=C/c3cccc(Oc4ccc(C(C)(C)C)cc4)c3)[C@@H](CO)C(=O)O)c2)cc1.O=C(O)C(F)(F)F [compound 309],EPO/EBP-Ig % inh @ 50 μM,"50 μM compound, Table 16A",13%
COC(=O)[C@H](Cc1ccccc1)NC/C=C/c1ccccc1 [compound 360],EPO/EBP-Ig % inh @ 50 μM,50 μM compound,18%
O=C(O)CCC(=O)NCCCCC(C(=O)NCCCCCCCCCCCCNC(=O)C(CCCCNC(=O)CCC(=O)O)N(Cc1ccc(OCc2ccccc2)cc1)Cc1ccc(OCc2ccccc2)cc1)N(Cc1ccc(OCc2ccccc2)cc1)Cc1ccc(OCc2ccccc2)cc1 (stereo not shown) [compound 270],IC30 μM (Inhibition of EPO binding to EBP-Ig),0.5 nM [125I]EPO,7 µM
same,EPO/EBP-Ig % inh @ 50 μM,"50 μM compound, Table 13",56%
same,% inh @ 50 μM (Inhibition of EPO binding to EBP-Ig),0.5 nM [125I]EPO,56%
same,IC50,"read-out: IC50, μM (Inhibition of EPO binding to EBP-Ig), 0.5 nM [125I]EPO, concentration reducing corrected total binding to 50%",100 µM
COc1ccc(CCNC(=O)C(CCCCNC(=O)Nc2ccc(Oc3ccccc3)cc2)N(C/C=C/c2ccccc2)C/C=C/c2ccccc2)cc1 (stereo not shown) [compound 229],EPO/EBP-Ig % inh @ 50 μM,"50 μM compound, Table 10",22%
COC(=O)[C@H](CCCCNC(=O)OC(C)(C)C)NC/C=C/c1cccc(Oc2ccccc2)c1 [compound 316],EPO/EBP-Ig % inh @ 50 μM,"50 μM compound, Table 18A",20%
CC(C)(C)OC(=O)CC(C(=O)OC(C)(C)C)N(C/C=C/c1cccc(Oc2ccccc2)c1)Cc1cccc(Oc2ccccc2)c1 (stereo not shown) [compound 76],EPO/EBP-Ig % inh @ 50 μM,"Table 5, 50 μM",25%
COC(=O)[C@H](CCCCNC(=O)OCc1ccccc1)NC/C=C/c1ccc(C(=O)O)cc1 [compound 323],EPO/EBP-Ig % inh @ 50 μM,"50 μM compound, Table 18A",6%
COC(=O)C(CCCCN)N(C/C=C/c1cccc([N+](=O)[O-])c1)C/C=C/c1cccc([N+](=O)[O-])c1 (stereo not shown) [compound 184],IC30 μM (Inhibition of EPO binding to EBP-Ig),0.5 nM [125I]EPO,10 µM
same,EPO/EBP-Ig % inh @ 50 μM,"50 μM compound, Table 9",53%
same,% inh @ 50 μM (Inhibition of EPO binding to EBP-Ig),0.5 nM [125I]EPO,53%
CCCCNC(=O)C(CCCCNC(=O)c1ccccc1)N(C/C=C/c1ccccc1)C/C=C/c1ccccc1 (stereo not shown) [compound 208],EPO/EBP-Ig % inh @ 50 μM,"50 μM compound, Table 10",22%
COC(=O)C(CCCCN)N(C/C=C/c1cccc(Oc2ccc(C(C)(C)C)cc2)c1)C/C=C/c1cccc(Oc2ccc(C(C)(C)C)cc2)c1 (stereo not shown) [compound 182],EPO/EBP-Ig % inh @ 50 μM,"50 μM compound, Table 9",18%
O=C(O)C(F)(F)F.O=C(O)CC[C@H](NC/C=C/c1ccc(-c2ccccc2)cc1)C(=O)O [compound 329],EPO/EBP-Ig % inh @ 50 μM,"50 μM compound, Table 19A",13%
O=C(O)CCC(C(=O)O)N(C/C=C/c1ccc(NC(=O)c2ccc([N+](=O)[O-])cc2)cc1)Cc1ccc(OCc2ccccc2)cc1 (stereo not shown) [compound 91],EPO/EBP-Ig % inh @ 50 μM,"Table 5, 50 μM",19%
COC(=O)[C@H](COC(C)(C)C)NC/C=C/c1cccc(Oc2ccc(C(C)(C)C)cc2)c1 [compound 356],EPO/EBP-Ig % inh @ 50 μM,"50 μM compound, Table 20A",23%
CCCCNC(=O)C(CCCCNC(=O)c1ccccc1OC)N(C/C=C/c1ccccc1)C/C=C/c1ccccc1 (stereo not shown) [compound 206],EPO/EBP-Ig % inh @ 50 μM,"50 μM compound, Table 10, 50 µM",17%
Cc1ccc(Oc2cccc(CN(Cc3cccc(NCc4ccccc4F)c3)C(CC(=O)O)C(=O)O)c2)cc1 (stereo not shown) [compound 73],EPO/EBP-Ig % inh @ 50 μM,"Table 4, 50 μM",−13%
O=C(O)CCCC(=O)Nc1ccc(/C=C/CN(Cc2ccc(OCc3ccccc3)cc2)C(CCC(=O)O)C(=O)O)cc1 (stereo not shown) [compound 83],EPO/EBP-Ig % inh @ 50 μM,"Table 5, 50 μM",18%
